Data on four compounds can be found in patent US20250228873A1, “C25 R AND S ISOMERS OF AMINOSTEROLS AND METHODS OF MAKING AND USING THE SAME” (Enterin, Inc., priority 2022, published 2025).

In one test the target is T1, PTPN1/PTP1B-CD (Homo sapiens, UniProt P18031).
T1 construct: purchased Recation Biology Inc
T1 sequence (P18031 3-277 limits assumed): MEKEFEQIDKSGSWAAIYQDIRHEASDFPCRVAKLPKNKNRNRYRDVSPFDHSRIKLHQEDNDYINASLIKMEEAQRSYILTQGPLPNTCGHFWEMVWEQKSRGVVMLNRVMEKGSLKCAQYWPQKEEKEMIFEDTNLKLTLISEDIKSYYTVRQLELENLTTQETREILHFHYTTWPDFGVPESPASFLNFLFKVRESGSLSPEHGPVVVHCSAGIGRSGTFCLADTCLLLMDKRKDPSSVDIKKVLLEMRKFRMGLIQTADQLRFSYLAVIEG
Description: Phosphatase panel, DiFMUP fluorescence assay. It counts as biochemical.

The target in a further test is T2, PTPN11/SHP2 (Homo sapiens, UniProt Q06124).
T2 sequence (Q06124 1-593): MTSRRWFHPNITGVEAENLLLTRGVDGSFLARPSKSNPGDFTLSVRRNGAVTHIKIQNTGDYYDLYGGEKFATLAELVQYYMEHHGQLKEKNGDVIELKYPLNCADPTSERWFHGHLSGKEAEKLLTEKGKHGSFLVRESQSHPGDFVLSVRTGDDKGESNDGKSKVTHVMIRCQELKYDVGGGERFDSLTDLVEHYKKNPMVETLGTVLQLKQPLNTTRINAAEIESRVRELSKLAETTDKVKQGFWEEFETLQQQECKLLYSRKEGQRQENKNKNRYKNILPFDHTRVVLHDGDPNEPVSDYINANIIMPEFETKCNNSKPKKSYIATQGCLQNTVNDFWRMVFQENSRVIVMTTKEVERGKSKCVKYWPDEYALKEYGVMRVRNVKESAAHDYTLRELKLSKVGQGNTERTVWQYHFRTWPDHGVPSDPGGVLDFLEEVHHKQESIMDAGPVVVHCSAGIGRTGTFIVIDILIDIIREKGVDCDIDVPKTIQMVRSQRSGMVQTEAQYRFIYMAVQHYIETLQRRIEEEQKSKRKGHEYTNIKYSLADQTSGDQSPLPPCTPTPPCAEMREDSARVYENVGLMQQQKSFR
Description: Phosphatase panel, DiFMUP fluorescence assay. It counts as biochemical. The settings on record: read-out: inhibitory activity PTPN11/SHP.

The target in a further test is T3, PTPN2/TC-PTP (Homo sapiens, UniProt P17706).
T3 construct: purchased Recation Biology Inc
T3 sequence (P17706 1-415): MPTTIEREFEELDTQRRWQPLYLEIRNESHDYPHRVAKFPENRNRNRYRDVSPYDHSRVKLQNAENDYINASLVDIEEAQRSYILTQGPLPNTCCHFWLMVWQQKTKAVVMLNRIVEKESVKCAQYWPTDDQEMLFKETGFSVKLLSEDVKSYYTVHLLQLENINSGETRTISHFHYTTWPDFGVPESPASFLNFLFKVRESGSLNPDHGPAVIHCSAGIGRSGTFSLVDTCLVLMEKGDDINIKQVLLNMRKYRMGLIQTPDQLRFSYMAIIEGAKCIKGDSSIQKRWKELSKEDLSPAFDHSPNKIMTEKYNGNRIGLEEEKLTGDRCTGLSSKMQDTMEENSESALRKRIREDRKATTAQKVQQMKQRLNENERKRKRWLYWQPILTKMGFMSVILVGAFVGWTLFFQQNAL
Description: Phosphatase panel, DiFMUP fluorescence assay. It is filed as biochemical.

The target in a further test is T4, PTPN7/LC-PTP (Homo sapiens, UniProt P35236).
T4 construct: purchased Recation Biology Inc
T4 sequence (P35236 1-360): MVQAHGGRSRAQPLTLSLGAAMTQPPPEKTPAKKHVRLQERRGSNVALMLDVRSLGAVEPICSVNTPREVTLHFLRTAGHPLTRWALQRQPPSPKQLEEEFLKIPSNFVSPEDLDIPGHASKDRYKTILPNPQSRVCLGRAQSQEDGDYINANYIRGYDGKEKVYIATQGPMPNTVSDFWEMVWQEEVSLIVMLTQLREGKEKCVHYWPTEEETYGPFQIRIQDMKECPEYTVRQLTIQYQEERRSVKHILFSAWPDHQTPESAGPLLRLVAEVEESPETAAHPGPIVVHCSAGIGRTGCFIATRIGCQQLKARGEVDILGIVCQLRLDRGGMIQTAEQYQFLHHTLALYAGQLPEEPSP
Description: Phosphatase panel, DiFMUP fluorescence assay. It is filed as biochemical.

In the next test the target is T5, PTPN11/SHP2-FL(E76K) (Homo sapiens, UniProt Q06124, E76K).
T5 sequence (Q06124 2-597 isoform Q06124-1 E76K): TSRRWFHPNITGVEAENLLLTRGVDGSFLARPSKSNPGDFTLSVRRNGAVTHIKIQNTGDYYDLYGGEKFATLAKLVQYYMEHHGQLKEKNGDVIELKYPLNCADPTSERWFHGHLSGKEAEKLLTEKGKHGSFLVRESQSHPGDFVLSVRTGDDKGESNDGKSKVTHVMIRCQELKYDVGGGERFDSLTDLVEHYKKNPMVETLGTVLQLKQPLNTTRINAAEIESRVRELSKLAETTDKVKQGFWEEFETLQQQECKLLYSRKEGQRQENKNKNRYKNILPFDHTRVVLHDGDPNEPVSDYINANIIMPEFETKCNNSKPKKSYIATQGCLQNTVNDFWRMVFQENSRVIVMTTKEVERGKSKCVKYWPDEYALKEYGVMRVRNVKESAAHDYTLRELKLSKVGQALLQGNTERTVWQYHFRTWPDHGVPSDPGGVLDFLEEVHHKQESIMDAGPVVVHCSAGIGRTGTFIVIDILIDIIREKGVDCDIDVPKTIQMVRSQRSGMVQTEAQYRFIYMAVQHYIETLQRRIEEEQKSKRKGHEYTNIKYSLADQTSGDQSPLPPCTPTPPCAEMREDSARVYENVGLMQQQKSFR
Description: Phosphatase panel, DiFMUP assay, E76K mutant.

The next test addresses T6, PP1A (Homo sapiens, UniProt P62136).
T6 construct: purchased Recation Biology Inc
The test is described as follows: Phosphatase panel, DiFMUP fluorescence assay. It counts as biochemical.

A further test addresses T7, PTPN6/SHP1 (Homo sapiens, UniProt P29350).
T7 construct: purchased Recation Biology Inc
Description: Phosphatase panel, DiFMUP fluorescence assay. It is filed as biochemical.

The mark [1] stands for this setting: Table 5C, read-out: Compound IC50 (M) PTPN7/LC-PTP.
Where [2] appears, read: Table 19B, read-out: inhibitory activity PTPN1/PTP1B-CD.
Where [3] appears, read: Table 19B, read-out: inhibitory activity PTPN2/TC-PTP.
The mark [4] stands for this setting: Table 19B, read-out: inhibitory activity PTPN7/LC-PTP.
[5] abbreviates: Table 19A, read-out: inhibitory activity PP1A.
The mark [6] stands for this setting: Table 19A, read-out: inhibitory activity PTPN6/SHP1.

Where two headings read alike, the source gives them in different places. Bounds are passed on as bounds.

T6 sequence (P62136 whole entry): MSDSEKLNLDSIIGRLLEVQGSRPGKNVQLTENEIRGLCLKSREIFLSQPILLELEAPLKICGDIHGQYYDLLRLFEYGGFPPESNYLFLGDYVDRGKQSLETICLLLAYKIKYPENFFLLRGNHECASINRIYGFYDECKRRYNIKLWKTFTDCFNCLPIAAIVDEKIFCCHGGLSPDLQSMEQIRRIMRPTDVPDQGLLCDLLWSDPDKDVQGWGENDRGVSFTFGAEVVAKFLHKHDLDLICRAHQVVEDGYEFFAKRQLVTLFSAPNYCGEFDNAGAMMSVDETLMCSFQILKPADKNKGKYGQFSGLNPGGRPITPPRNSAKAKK
T7 sequence (P29350 whole entry): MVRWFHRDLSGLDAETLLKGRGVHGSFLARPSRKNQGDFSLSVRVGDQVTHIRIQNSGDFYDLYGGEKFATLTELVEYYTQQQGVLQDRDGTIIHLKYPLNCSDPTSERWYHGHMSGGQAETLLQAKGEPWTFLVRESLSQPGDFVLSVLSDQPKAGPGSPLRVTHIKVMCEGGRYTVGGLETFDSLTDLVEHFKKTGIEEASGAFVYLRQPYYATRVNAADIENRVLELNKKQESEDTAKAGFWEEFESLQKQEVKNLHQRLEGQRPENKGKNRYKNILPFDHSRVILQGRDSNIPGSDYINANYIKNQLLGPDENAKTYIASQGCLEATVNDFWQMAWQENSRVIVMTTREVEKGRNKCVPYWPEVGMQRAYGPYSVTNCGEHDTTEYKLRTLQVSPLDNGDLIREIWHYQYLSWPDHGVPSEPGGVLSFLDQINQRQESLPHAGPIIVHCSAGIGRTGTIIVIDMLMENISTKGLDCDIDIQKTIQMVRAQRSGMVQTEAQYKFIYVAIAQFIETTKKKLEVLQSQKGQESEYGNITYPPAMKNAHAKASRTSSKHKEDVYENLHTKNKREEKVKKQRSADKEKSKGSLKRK

`CC(CCC[C@@H](C)[C@H]1CCC2C3C(CC(O)[C@@]21C)[C@@]1(C)CC[C@H](NCCCNCCCCN)C[C@@H]1C[C@H]3O)C(=O)O` (single isomer, unassigned) [ENT-05]: the IC50 at PTPN1/PTP1B-CD (Table 18B, read-out: inhibitory activity PTPN1/PTP1B-CD) was 2.58e-06 M; on PTPN11/SHP2 (Table 18A) it was 18400 nM; on PTPN2/TC-PTP (Table 18B, read-out: inhibitory activity PTPN2/TC-PTP), above 0.0001 M; at PTPN7/LC-PTP (Table 18B, read-out: inhibitory activity PTPN7/LC-PTP), 3.97e-06 M; against PTPN11/SHP2-FL(E76K) it was 43 nM; on PP1A (Table 18A, read-out: inhibitory activity PP1A), above 0.0001 M. Also, the IC50 on PTPN6/SHP1 (Table 18A, read-out: inhibitory activity PTPN6/SHP1) was above 0.0001 M.

On to `CC(C)[C@@H](CC[C@@H](C)[C@H]1CC[C@H]2[C@@H]3[C@H](O)C[C@H]4C[C@@H](NCCCNCCCCNCCCN)CC[C@]4(C)[C@H]3CC[C@]12C)OS(=O)(=O)O` (single isomer, unassigned) [ENT-02 (MSI-1436), trodusquemine], for which the IC50 on PTPN7/LC-PTP (setting [1]) turned out to be 1.65e-06 M; on PTPN11/SHP2-FL(E76K) it was 292 nM.

On to `CC(CCC[C@@H](C)[C@H]1CCC2C3C(CC[C@@]21C)[C@@]1(C)CC[C@H](NCCCNCCCCNCCCN)C[C@@H]1C[C@H]3O)C(=O)O` (single isomer, unassigned) [ENT-03], for which the IC50 was 1.17e-07 M on PTPN1/PTP1B-CD (Table 5C, read-out: Compound IC50 (M) PTPN1/PTP1B-CD); 1.17e-07 M on PTPN1/PTP1B-CD (setting [2]); 5000 nM at PTPN11/SHP2 (Table 19A); above 0.0001 M at PTPN2/TC-PTP (Table 5C, read-out: Compound IC50 (M) PTPN2/TC-PTP); above 0.0001 M on PTPN2/TC-PTP (setting [3]); 6.34e-07 M on PTPN7/LC-PTP (setting [1]). In addition, the IC50 is 6.34e-07 M on PTPN7/LC-PTP (setting [4]); 294 nM against PTPN11/SHP2-FL(E76K); above 0.0001 M on PP1A (Table 5B, read-out: Compound IC50 (M) PP1A); above 0.0001 M on PP1A (setting [5]); above 0.0001 M at PTPN6/SHP1 (Table 5B, read-out: Compound IC50 (M) PTPN6/SHP1); above 0.0001 M on PTPN6/SHP1 (setting [6]). In addition, the “activity at PTPN2” value at PTPN2/TC-PTP was “inactive”. Besides, the “activity at PP1A” value at PP1A was “inactive”. Moreover, the “activity at PTPN6” value at PTPN6/SHP1 was “inactive”.

Turning to `CC(CCC[C@@H](C)[C@H]1CCC2C3C(CC[C@@]21C)[C@@]1(C)CC[C@H](NCCCNCCCCN)C[C@@H]1C[C@H]3O)C(=O)O` (single isomer, unassigned) [ENT-06], the IC50 at PTPN1/PTP1B-CD (setting [2]) was 1.47e-07 M; at PTPN11/SHP2 (Table 19A), 3450 nM; at PTPN2/TC-PTP (setting [3]) it was above 0.0001 M; on PTPN7/LC-PTP (setting [4]) it was 1.05e-06 M; against PTPN11/SHP2-FL(E76K) it was 345 nM; on PP1A (setting [5]), above 0.0001 M. Further, the IC50 at PTPN6/SHP1 (setting [6]) was above 0.0001 M.
